Where two headings read alike, the source gives them in different places.
Legend:
HeLa cells [1] = assay: MTT antiproliferative assay, HeLa cells; assay type: cell-based, human; conditions: Homo sapiens, 48 h
Description: (§1) HeLa and SiHa cell lines were obtained from the Procell Life Science Technology Co., Ltd. (Wuhan, China); H8 cell line was obtained from the Shanghai HonSun Biological Technology Co., Ltd. (Shanghai, China); HUVEC cell line was obtained from the Saibaikang (Shanghai) Biotechnology Co., Ltd. (Shanghai, China); HeLa/DDP cell line was obtained from the Guangzhou Jenniobio Biotechnology Co., Ltd. (Guangzhou, China). HeLa, SiHa, H8, and HeLa/DDP cells were cultured in DMEM medium (HyClone). The VEGF of 50 ng/mL was used as the promoter of the VEGFR-2 receptor on HUVEC cell membrane surfaces, and their inhibitory effects on VEGFR-2 were determined. All the mediums were supplemented with 10% FBS (HyClone, GE Healthcare, Australia). Cells were maintained at subconfluency at 37 °C in humidified air containing 5% CO2. The cells were monitored daily and maintained at 80% cell density. All compounds tested were dissolved in DMSO and then diluted by the culture medium before the treatment of cultured cells. Identification reports are available for all types of cell lines involved in this study.
(§2) The cytotoxicity of the target compounds were measured in vitro using the MTT assay. Cells grown in the logarithmic phase were counted and seeded in 96-well cell culture plates (5 × 10^3 cells per well) for 24 h to allow attachment of cells to the wall of the plate. […] Next, 20 μL of 5 mg.mL^−1 MTT solution was added to each well and cultured for 4 h. The old solution was discarded, replaced with 150 μL DMSO solution per well, and shaken for 10 min. The OD value was measured under 490 nm, and the inhibition rate was calculated. The nonlinear regression fitting of the cell growth rate was carried out using SPSS 23.0 software, and the IC50 of the compound was calculated. […] There were 6 compound holes in each group, and the experimental results were presented as the average of 3 experiments. A complete medium containing only cells was used as the blank control, whereas a complete medium without cells was the negative control group. Cisplatin and sorafenib were utilized as the positive control group, and the target compound was the experimental intervention group.

HeLa/DDP cells = assay: MTT assay, cisplatin-resistant HeLa/DDP cells; assay type: cell-based, human; conditions: for RI (resistance index): HeLa/DDP versus HeLa; for IC50: Homo sapiens, 48 h, read-out: 48h IC50 HeLa/DDP
Description: The cytotoxicity of the target compounds were measured in vitro using the MTT assay. Cells grown in the logarithmic phase were counted and seeded in 96-well cell culture plates (5 × 10^3 cells per well) for 24 h to allow attachment of cells to the wall of the plate. […] Next, 20 μL of 5 mg.mL^−1 MTT solution was added to each well and cultured for 4 h. The old solution was discarded, replaced with 150 μL DMSO solution per well, and shaken for 10 min. The OD value was measured under 490 nm, and the inhibition rate was calculated. The nonlinear regression fitting of the cell growth rate was carried out using SPSS 23.0 software, and the IC50 of the compound was calculated. […] A complete medium containing only cells was used as the blank control, whereas a complete medium without cells was the negative control group.
To reduce the adverse reactions caused by the fixation of drug resistance reversal agents, the concentration that reduces the proliferation rate of tumor cells by less than 10% was selected.

H8 cells = assay: MTT cytotoxicity assay, normal cervical epithelial H8 cells; assay type: cell-based, human; conditions: Homo sapiens, 48 h, mean ± SD
Description: as §1, §2

SiHa cells = assay: MTT antiproliferative assay, SiHa cells; assay type: cell-based, human; conditions: Homo sapiens, 48 h, mean ± SD
Description: as §1, §2

HUVEC cells = assay: In vitro HUVEC inhibitory assay (MTT); assay type: cell-based; conditions: Homo sapiens, 48 h, ± SD
Description: as §1, §2
After incubation for 24 h, the cell was collected using centrifugation and washed twice using PBS chilled to 0 °C. Then, the cells were homogenized in RIPA lysis buffer and 1% PMSF, 1% mixed phosphatase inhibitor (Solarbio, Beijing, China). The lysates were incubated on ice for 30 min, intermittently vortexed every 5 min, and centrifuged at 12,000 rpm for 20 min to harvest the supernatants.

VEGFR-2 [2] = molecular target: T1, VEGFR-2 (Homo sapiens, UniProt P35968); assay: VEGFR-2 inhibition test (human p-VEGFR-2 ELISA in HeLa cells); assay type: cell-based; conditions: ± SD, read-out: 48h IC50 VEGFR-2 inhibitory effect
T1 construct: endogenous in cells; host or cells: HeLa cells
T1 sequence (P35968 20-1356): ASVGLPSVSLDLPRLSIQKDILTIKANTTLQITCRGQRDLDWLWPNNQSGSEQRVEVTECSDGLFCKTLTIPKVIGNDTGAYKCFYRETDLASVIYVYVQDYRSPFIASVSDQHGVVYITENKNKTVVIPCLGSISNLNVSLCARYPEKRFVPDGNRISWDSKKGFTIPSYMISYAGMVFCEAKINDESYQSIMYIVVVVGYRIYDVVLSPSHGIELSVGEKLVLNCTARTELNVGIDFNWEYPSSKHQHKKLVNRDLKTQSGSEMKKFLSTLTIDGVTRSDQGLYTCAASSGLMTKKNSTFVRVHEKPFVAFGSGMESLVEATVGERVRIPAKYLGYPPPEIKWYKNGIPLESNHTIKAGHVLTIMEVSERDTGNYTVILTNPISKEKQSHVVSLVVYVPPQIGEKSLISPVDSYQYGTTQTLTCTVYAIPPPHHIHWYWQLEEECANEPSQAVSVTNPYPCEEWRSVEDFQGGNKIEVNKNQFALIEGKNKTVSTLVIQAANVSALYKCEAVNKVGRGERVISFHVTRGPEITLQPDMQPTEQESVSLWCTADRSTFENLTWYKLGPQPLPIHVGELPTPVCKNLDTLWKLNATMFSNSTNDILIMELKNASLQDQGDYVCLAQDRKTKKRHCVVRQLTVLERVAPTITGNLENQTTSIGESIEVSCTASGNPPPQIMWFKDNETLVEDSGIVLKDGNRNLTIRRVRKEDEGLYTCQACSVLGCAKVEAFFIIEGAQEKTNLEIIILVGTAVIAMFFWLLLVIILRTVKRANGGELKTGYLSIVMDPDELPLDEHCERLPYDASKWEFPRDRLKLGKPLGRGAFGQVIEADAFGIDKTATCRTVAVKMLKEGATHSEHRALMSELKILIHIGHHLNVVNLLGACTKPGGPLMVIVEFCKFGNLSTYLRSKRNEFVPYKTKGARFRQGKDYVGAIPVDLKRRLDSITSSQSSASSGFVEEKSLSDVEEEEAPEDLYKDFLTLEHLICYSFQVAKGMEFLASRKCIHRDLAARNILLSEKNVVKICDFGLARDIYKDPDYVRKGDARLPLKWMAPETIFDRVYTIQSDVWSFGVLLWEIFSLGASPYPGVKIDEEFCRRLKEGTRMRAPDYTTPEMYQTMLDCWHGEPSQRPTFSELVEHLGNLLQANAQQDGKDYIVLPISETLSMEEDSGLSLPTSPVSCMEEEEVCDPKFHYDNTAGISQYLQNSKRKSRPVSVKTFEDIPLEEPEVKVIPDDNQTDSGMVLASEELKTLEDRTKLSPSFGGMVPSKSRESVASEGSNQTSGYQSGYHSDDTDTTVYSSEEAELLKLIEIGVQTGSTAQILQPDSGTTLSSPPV
Description: Specimens, standards, and HRP-labeled detection antibodies were added sequentially to the pre-covered microtiter wells containing phosphorylated vascular endothelial growth factor receptor 2 (p-VEGFR2) antibodies, warmed, and washed thoroughly. The substrate TMB was added for color development. This substrate is converted to blue using peroxidase catalysis to a final yellow color due to the action of acid. […] Curve fitting was performed using SPSS 23.0 software to calculate IC50.

HeLa cells [3] = assay: Apoptosis analysis, Annexin V-FITC/PI flow cytometry; assay type: cell-based, human; conditions: 4 μM, 24 h
Description: After incubation, cells were harvested and incubated using […] of Annexin-V/FITC (BD, America) in binding buffer (10 mM HEPES, 140 mM NaCl, and 2.5 mM CaCl2 at pH 7.4) at room temperature for 15 min. The PI solution was then added to the medium for another 10 min incubation. Almost 10,000 events were collected for each sample and analyzed using flow cytometry (BD, LSRFortessa, New York, NY, USA). The procedure for the remaining Western blot was the same as in Section 3.3.3.

VEGFR-2 [4] = conditions: read-out: IC50 against VEGFR-2; cited from earlier work
MCF-7 cells = conditions: cytotoxic effect; cited from earlier work
HepG2 cells = conditions: cited from earlier work
PC-3 cells = conditions: cytotoxic effect; cited from earlier work
[5] = MTT, mean ± SD, read-out: 48h IC50 HeLa
[6] = single agent, read-out: 48h IC50 HeLa (Table 4)
[7] = cisplatin-resistant HeLa/DDP cells, single agent

SMILES | IC50 (HeLa cells [1]; [5]) [µM] | IC50 (HeLa cells [1]; [6]) [µM] | IC50 (H8 cells) [µM] | IC50 (SiHa cells) [µM] | IC50 (HUVEC cells) [µM] | IC50 (VEGFR-2 [4]) [µM] | also measured
COc1cc(O)c(C(=O)/C=C/c2ccc(CN3CCC(C)CC3)cc2)cc1CN1CCCC1 [6k, (E)-1-(2-hydroxy-4-methoxy-5-(pyrrolidin-1-ylmethyl)phenyl)-3-(4-((4-methylpiperidin-1-yl)methyl)phenyl)prop-2-en-1-one] | 15.22 ± 0.08 | 15.22 ± 0.08 | 30.1 ± 0.44 | 24.83 ± 0.17 | 20.2 ± 1.19 |  | RI (resistance index) (HeLa/DDP cells; single agent): 1.13; IC50 (HeLa/DDP cells; [7]): 17.3 ± 2.07 µM; IC50 (VEGFR-2 [2]): 1.67 ± 0.18 µM
COc1cc(O)c(C(=O)/C=C/c2ccc(CN3CCC(C)CC3)cc2)cc1CN1CCOCC1 [6o, (E)-1-(2-hydroxy-4-methoxy-5-(morpholinomethyl)phenyl)-3-(4-((4-methylpiperidin-1-yl)methyl)phenyl)prop-2-en-1-one] | 65.8 ± 1.36 |  | 80 ± 8.92 | 63.7 ± 2.18 |  |  | melting point: 104.2 to 105.4 °C
O=C(/C=C/c1ccccc1)c1ccccc1 [Chalcone] | 74 ± 4.48 | 74 ± 4.48 | 77.7 ± 6.85 | 66.5 ± 2.88 | 77.5 ± 4.2 |  | RI (resistance index) (HeLa/DDP cells; single agent): 1.23; IC50 (HeLa/DDP cells; [7]): 91 ± 6.22 µM; IC50 (VEGFR-2 [2]): > 20 µM
CNC(=O)c1cc(Oc2ccc(NC(=O)Nc3ccc(Cl)c(C(F)(F)F)c3)cc2)ccn1 [Sorafenib, reference compound] | 10.8 ± 0.15 | 10.8 ± 0.15 | 18.4 ± 1.04 | 15 ± 1.2 | 9.2 ± 1.22 |  | IC50 (HeLa/DDP cells; HeLa): 12.4 ± 0.54 µM; proapoptotic rate (HeLa cells [3]): 31.7%
CNC(=O)c1cc(Oc2ccc(C(=O)/C=C/c3cccc(Br)c3)cc2)ccn1 [compound 7] |  |  |  |  |  | 0.72 | 
CNC(=O)c1cc(Oc2ccc(C(=O)/C=C/c3cc(OC)c(OC)c(OC)c3)cc2)ccn1 [compound 8] |  |  |  |  |  | 3.2 | IC50 (MCF-7 cells): 3.88 ± 1.03 µM; cytotoxic activity relative to sorafenib (HepG2 cells; HepG2, MCF-7 and PC-3 cells): 1.03–6.14 times; IC50 (HepG2 cells; cytotoxic effect, HepG2 cells): 0.56 ± 0.83 µM; IC50 (PC-3 cells): 3.15 ± 0.81 µM
CNC(=O)c1cc(Oc2ccc(C(=O)/C=C/c3ccccc3)cc2)ccn1 [compound 9] |  |  |  |  |  | 1.1 | 
